We go through twelve compounds from patent US4778511A, “Fluorine-containing N-sulphenylated indazoles for use as bactericides and fungicides” (Bayer Aktiengesellschaft, priority 1985, dated 1988).

Values after ≈ are worked out from the molar mass of the structure shown.

The subject of assay [1] is Trichoderma viride. The assay is described as follows: MIC against fungi (agar), Trichoderma viride. The note with it: 336 h, beer wort/peptone agar, 2 weeks at 28° C., 60 to 70% relative humidity. Format: cell-based. As to the method: (§1) Active compounds, according to the invention, are added in concentrations of 0.1 mg/l to 5000 mg/l, to an agar prepared from beer wort and peptone. The MIC is determined after the agar has been stored for 2 weeks at 28° C. and 60 to 70% relative atmospheric humidity. MlC is the lowest concentration of active compound at which the species of microbe used undergoes no growth at all; it is shown in the table below.

In assay [2] the test system is Lentinus tigrinus. The assay is described as follows: MIC against fungi (agar), Lentinus tigrinus. The settings on record: 336 h, beer wort/peptone agar, 2 weeks at 28° C., 60 to 70% relative humidity. Type of assay: cell-based. As to the method:
as §1

Assay [3] has as its system Sclerophoma pityophila. In words: MIC against fungi (agar), Sclerophoma pityophila. The settings on record: Sydowia polyspora, 336 h, beer wort/peptone agar, 2 weeks at 28° C., 60 to 70% relative humidity. Type of assay: cell-based. As to the method:
as §1

In assay [4] the test system is Penicillium glaucum. The assay is described as follows: MIC against fungi (agar), Penicillium glaucum. Type of assay: cell-based. The settings on record: 336 h, beer wort/peptone agar, 2 weeks at 28° C., 60 to 70% relative humidity. The procedure: as §1
The subject of assay [5] is Allernaria tenuis. The assay is described as follows: MIC against fungi (agar), Alternaria tenuis. Type of assay: cell-based. The note with it: Alternaria alternata, 336 h, beer wort/peptone agar, 2 weeks at 28° C., 60 to 70% relative humidity. As to the method:
as §1

For assay [6], the system named is slime organisms. In words: Action against slime organisms (MIC). Format: cell-based. The settings on record: 504 h; slime organisms approx. 10^6 microbes/ml, Allen's nutrient solution with 1% caprolactam, room temperature, 3 weeks. As to the method:
Substances according to the invention are used in concentrations of 0.1 to 100 mg/l in each case, dissolved in a little acetone, in Allen's nutrient solution (Arch. Mikrobiol. 17, 34 to 53 (1952)) containing 0.2 g of ammonium chloride, 4.0 g of sodium nitrate, 1.0 g of dipotassium hydrogenphosphate, 0.2 g of calcium chloride, 2.05 g of magnesium sulphate and 0.02 g of iron chloride, together with 1% of caprolactam, in 4 l of sterile water. Shortly beforehand, the nutrient solution is infested with slime organisms (approx. 10^6 microbes/ml), isolated from the spinning water circulation used in the production of polyamide.

Assay [7] concerns Chaelomium globosum. The assay is described as follows: MIC against fungi (agar), Chaetomium globosum. Type of assay: cell-based. The settings on record: 336 h, beer wort/peptone agar, 2 weeks at 28° C., 60 to 70% relative humidity. The procedure: as §1
The subject of assay [8] is Aureobasidium pullulans. In words: MIC against fungi (agar), Aureobasidium pullulans. The settings on record: 336 h, beer wort/peptone agar, 2 weeks at 28° C., 60 to 70% relative humidity. Type of assay: cell-based. The procedure: as §1
The test system of assay [9] is Polyporus versicolor. In words: MIC against fungi (agar), Polyporus versicolor. The note with it: Trametes versicolor, 336 h, beer wort/peptone agar, 2 weeks at 28° C., 60 to 70% relative humidity. Format: cell-based. The procedure: as §1
Assay [10] deals with Aspergillus niger. The assay is described as follows: MIC against fungi (agar), Aspergillus niger. Type of assay: cell-based. The settings on record: 336 h, beer wort/peptone agar, 2 weeks at 28° C., 60 to 70% relative humidity. As to the method:
as §1

The test system of assay [11] is Cladosporium. In words: MIC against fungi (agar), Cladosporium. Format: cell-based. The settings on record: 336 h, beer wort/peptone agar, 2 weeks at 28° C., 60 to 70% relative humidity. The procedure:
as §1

In assay [12] the test system is Drechslera graminea (syn. Helminthosporium gramineum). The assay is described as follows: Drechslera graminea test (barley)/seed treatment. Type of assay: in vivo. The settings on record: application rate 500 mg/kg of seed, approx. 3 weeks after sowing, undressed 23.4. The procedure: Drechslera graminea test (barley)/seed treatment (syn. Helminthosporium gramineum)
The active compounds are applied in the form of dry dressing agents. They are formulated by diluting the particular active compound with ground minerals to give a finely powdered mixture, which ensures uniform distribution on the surface of the seed.
The infested seed is dressed by shaking it for 3 minutes with the dressing agent in a closed glass jar.
Embedded in sieved, moist standard soil, the seed is exposed to a temperature of 4° C. for 10 days in closed Petri dishes in a refrigerator. This initiates the germination of the barley sand, if appropriate, also that of the fungus spores. The pre-germinated barley is then sown in 2 lots of 50 grains 3 cm deep in standard soil and is cultivated in seed boxes which are exposed to light for 15 hours a day in a greenhouse at a temperature of approx. 18° C.
The plants are evaluated for symptoms of stripe disease approx. 3 weeks after sowing.

What is called MIC is the lowest concentration found to suppress growth. A higher MIC goes with a less susceptible organism. On to `FC(F)(F)Oc1ccc2c(cnn2SC(F)(Cl)Cl)c1` [Example 5], for which the MIC is 50 µg/mL (≈ 149 µM) in assay [1]; 0.1 µg/mL (≈ 0.298 µM) in [2]; 0.75 µg/mL (≈ 2.24 µM) in assay [3]; 20 µg/mL (≈ 59.7 µM) in assay [4]; 20 µg/mL (≈ 59.7 µM) in [5]; 5 to 10 µg/mL (≈ 14.9 to 29.8 µM) in [6]. The minimum inhibitory concentration (MIC) in [7] is 20 µg/mL (≈ 59.7 µM); in assay [8], 20 µg/mL (≈ 59.7 µM); in assay [9], 2 µg/mL (≈ 5.97 µM); in assay [10] it was 20 µg/mL (≈ 59.7 µM).

As for `FC(F)(F)Sc1ccc2c(cnn2SC(F)(Cl)Cl)c1` [Example 18], the MIC in assay [4], in assay [7] and in assay [10] was less than 20 µg/mL throughout.

`FC(F)(F)Oc1ccc2cnn(SC(Cl)(Cl)Cl)c2c1` [Example 1, 6-Trifluoromethoxy-1-trichloromethylsulphenylindazole]: the minimal inhibitory concentration (MIC) in [2] is 75 µg/mL (≈ 213 µM); in assay [11] it was 20 µg/mL (≈ 56.9 µM); in assay [3], 75 µg/mL (≈ 213 µM); in assay [4], 20 µg/mL (≈ 56.9 µM); in assay [5], 150 µg/mL (≈ 427 µM); in assay [7] it was 75 µg/mL (≈ 213 µM). Also, the MIC in assay [8] stood at 350 µg/mL (≈ 996 µM); in assay [10], 20 µg/mL (≈ 56.9 µM).

Take `FC(Cl)(Cl)Sn1ncc2c(Cl)c(Cl)c(C(F)(F)F)cc21` [Example 17]: the minimal inhibitory concentration (MIC) in [4] is less than 20 µg/mL; in assay [7] it was less than 20 µg/mL; in assay [10] it was 500 µg/mL (≈ 1290 µM).

As to `Fc1cccc2c1cnn2SC(F)(Cl)Cl` [1-Dichlorofluoromethylsulphenyl-4-fluoroindazole, reference compound], the values for the minimal inhibitory concentration (MIC) in assay [4], in assay [7] and in [10] were 200 µg/mL (≈ 743 µM), 200 µg/mL (≈ 743 µM) and 500 µg/mL (≈ 1860 µM), respectively.

`FC(F)(F)Sc1ccc2cnn(SC(F)(Cl)Cl)c2c1` [Example 16]: the MIC in [4], in assay [7] and in assay [10] was less than 20 µg/mL each time.

Consider `FC(F)(F)Oc1ccc2cnn(SC(F)(Cl)Cl)c2c1` [Example 2, 6-Trifluoromethoxy-1-dichlorofluoromethylsulphenylindazole], for which the minimum inhibitory concentration (MIC) in assay [2] was found to be 20 µg/mL (≈ 59.7 µM); in [11], 20 µg/mL (≈ 59.7 µM); in assay [3] it was 35 µg/mL (≈ 104 µM); in assay [4] it was 2 µg/mL (≈ 5.97 µM); in assay [5] it was 75 µg/mL (≈ 224 µM); in assay [7], 2 µg/mL (≈ 5.97 µM). Also, the minimal inhibitory concentration (MIC) was 150 µg/mL (≈ 448 µM) in assay [8] and 20 µg/mL (≈ 59.7 µM) in assay [10]. Also, the “Diseased plants as % of all the emerged plants” value in assay [12] came out at 4.1%.

On to `Cc1cc2cnn(SC(F)(Cl)Cl)c2c(C)c1C(F)(F)F` [Example 15], for which the MIC in assay [4] was less than 20 µg/mL; in assay [7], less than 20 µg/mL; in assay [10], 50 µg/mL (≈ 144 µM).

For the compound `FC1Oc2cc3c(cnn3SC(F)(Cl)Cl)cc2OC1(F)F` (centres unmarked) [Example 4], the MIC came out at 100 µg/mL (≈ 275 µM) in [4], 100 µg/mL (≈ 275 µM) in assay [7] and 150 µg/mL (≈ 413 µM) in [10].

For the compound `Cc1cc(F)cc2c1cnn2SC(F)(Cl)Cl` [Example 19], the minimal inhibitory concentration (MIC) came out at 500 µg/mL (≈ 1770 µM) in [1]; 0.5 µg/mL (≈ 1.77 µM) in assay [2]; 5 µg/mL (≈ 17.7 µM) in assay [11]; 15 µg/mL (≈ 53 µM) in [3]; 20 µg/mL (≈ 70.6 µM) in [4]; 15 µg/mL (≈ 53 µM) in [5]. Also, the minimum inhibitory concentration (MIC) in assay [7] was 10 µg/mL (≈ 35.3 µM); in assay [8], 50 µg/mL (≈ 177 µM); in [10], 10 µg/mL (≈ 35.3 µM).

Regarding `FC(F)(F)Oc1ccc2c(cnn2SC(F)(Cl)Cl)c1Cl` [Example 12], the MIC in [2] turned out to be 7.5 µg/mL (≈ 20.3 µM); in assay [11], 20 µg/mL (≈ 54.1 µM); in [3], 200 µg/mL (≈ 541 µM); in [4], 20 µg/mL (≈ 54.1 µM); in [5], 200 µg/mL (≈ 541 µM); in assay [7] it was 20 µg/mL (≈ 54.1 µM). Moreover, the results for the minimal inhibitory concentration (MIC) in [8] and in assay [10] were 500 µg/mL (≈ 1350 µM) and 50 µg/mL (≈ 135 µM), respectively.

`Cc1cc(C(F)(F)F)c2cnn(SC(F)(Cl)Cl)c2c1Cl` [Example 8]: the values for the MIC in assay [4], in assay [7] and in assay [10] were less than 20 µg/mL, less than 20 µg/mL and 500 µg/mL (≈ 1360 µM), respectively.
